The nature of data set [1]: Pharmacokinetics of PYY analogues in mice. It is filed as in vivo. The note with it: C57BL/6J, mouse, plasma, 1 mg/kg.
Data set [2] has as its target T1, human Y2R (Homo sapiens, UniProt P49146).
T1 sequence (P49146 1-381): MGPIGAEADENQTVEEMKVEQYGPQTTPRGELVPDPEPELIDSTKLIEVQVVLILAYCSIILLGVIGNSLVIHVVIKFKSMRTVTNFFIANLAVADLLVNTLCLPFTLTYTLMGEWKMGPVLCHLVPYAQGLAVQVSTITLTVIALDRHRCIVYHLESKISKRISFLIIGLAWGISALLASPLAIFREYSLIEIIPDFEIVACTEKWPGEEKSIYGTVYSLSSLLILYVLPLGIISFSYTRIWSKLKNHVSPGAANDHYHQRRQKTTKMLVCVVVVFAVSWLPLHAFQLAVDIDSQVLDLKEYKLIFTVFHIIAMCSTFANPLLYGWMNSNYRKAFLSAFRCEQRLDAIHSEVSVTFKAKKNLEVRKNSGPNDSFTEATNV
Nature of the data set: biochemical. It counts as binding.

The target of data set [3] is T1, human Y2R. As to the kind of experiment: biochemical. It counts as biochemical.
Data set [4] has as its system male C57BL/6J mice. Nature of the data set: Food intake assay, bolus ip administration in lean mice. It is filed as in vivo, mouse. Particulars: 3 h after administration, vs saline, mean ± SD.
Data set [5] in a line: Stability in 20% mouse serum/PBS. Particulars: mouse, 20% mouse serum in PBS. It is filed as in vitro ADME.

Where a SMILES comes first, the peptide text is derived from it. [ ]: non-standard residue; d: D form. The star is where a group is joined. Phe(4-F) = N[C@@H](Cc1ccc(F)cc1)C(=O)O; Cha = N[C@@H](CC1CCCCC1)C(=O)O; Aib = CC(C)(N)C(=O)O; Bz = O=C(c1ccccc1)*

In general, Cmax refers to the maximum level reached in the sampled fluid or tissue. Usually MRT stands for a mean duration of stay, worked out from the concentration-time curve. The Tmax is the time at which the peak concentration occurs. A word on the bioavailability: it is dose-corrected exposure relative to a reference, in per cent. Higher therefore signals much systemic uptake. In general, Vd refers to a proportionality between amount in the body and measured concentration, not a real space. What is called clearance is the rate of elimination divided by the concentration. Low values mean a low capacity for elimination, high ones a high capacity for elimination. Consider `CC(C)C[C@H](NC(=O)[C@H](CC(N)=O)NC(=O)[C@H](CC1CCCCC1)NC(=O)[C@H](CC1CCCCC1)NC(=O)[C@H](Cc1cnc[nH]1)NC(=O)[C@H](CCCNC(=N)N)NC(=O)c1ccccc1)C(=O)NC(C)(C)C(=O)N[C@H](C(=O)N[C@@H](CCCNC(=N)N)C(=O)N[C@@H](CCC(N)=O)C(=O)N[C@@H](CCCNC(=N)N)C(=O)N[C@@H](CC1CCCCC1)C(N)=O)[C@@H](C)O` [Compound 21, benzoyl-[Cha^27,28,36,Aib^31]PYY(25–36)] (Bz-RH[Cha][Cha]NL[Aib]TRQR[Cha]-NH2), for which, in data set [1] (ip), the highest level (Cmax) was 0.406 µM, the MRT is 75 min, the Tmax came to 15 min and the bioavailability is 6.8%. In data set [1] (iv), this compound had an MRT of 27 min, a Vd of 0.073 L/kg and a clearance of 0.162 L/h/kg.
By IC50 is commonly meant the concentration that inhibits the measured activity by half. Usually EC50 stands for the midpoint of the concentration-response curve. Low values mean greater potency, high ones weaker potency. In the case of `CC[C@H](C)[C@H](NC(=O)[C@H](CC1CCCCC1)NC(=O)[C@H](Cc1c[nH]cn1)NC(=O)[C@H](CCCNC(=N)N)NC(=O)c1ccccc1)C(=O)N[C@@H](CC(N)=O)C(=O)N[C@@H](Cc1ccc(F)cc1)C(=O)N[C@H](C(=O)N[C@H](C(=O)N[C@@H](CCCNC(=N)N)C(=O)N[C@@H](CCC(N)=O)C(=O)N[C@@H](CCCNC(=N)N)C(=O)N[C@@H](CC1CCCCC1)C(N)=O)[C@@H](C)O)[C@@H](C)CC` [Compound 6] (Bz-RH[Cha]IN[Phe(4-F)]ITRQR[Cha]-NH2), in data set [2], half-maximal inhibition (IC50) required 11 nM. For the same compound, a half-maximal response in data set [3] (EC50) required 2.9 nM. Further, the “% food intake inhibition” value is 18 ± 5% in data set [4] (bolus ip 500 nmol/kg) and 40 ± 5% in data set [4] (bolus ip 1000 nmol/kg). For the same compound, the share remaining at 0.5 h in data set [5] was determined as 96%.
Consider `CC[C@H](C)[C@H](NC(=O)[C@H](CC1CCCCC1)NC(=O)[C@H](Cc1c[nH]cn1)NC(=O)[C@H](CCCNC(=N)N)NC(=O)c1ccccc1)C(=O)N[C@@H](CC(N)=O)C(=O)N[C@@H](Cc1c[nH]c2ccccc12)C(=O)NC(C)(C)C(=O)N[C@H](C(=O)N[C@@H](CCCNC(=N)N)C(=O)N[C@@H](CCC(N)=O)C(=O)N[C@@H](CCCNC(=N)N)C(=O)N[C@@H](CC1CCCCC1)C(N)=O)[C@@H](C)O` [Compound 11] (Bz-RH[Cha]INW[Aib]TRQR[Cha]-NH2), for which, in data set [2], the midpoint of inhibition, the IC50, lay at 11 nM. Also, the EC50 in data set [3] stood at 2.4 nM. Besides, the figures for the “% food intake inhibition” value in data set [4] (bolus ip 500 nmol/kg), in data set [4] (bolus ip 1000 nmol/kg) and in data set [4] (bolus ip 2000 nmol/kg) were 12 ± 3%, 36 ± 8% and 52 ± 5%, respectively. The fraction remaining at 0.5 h in data set [5] was 95%.
`CC[C@H](C)[C@H](NC(=O)[C@H](CC1CCCCC1)NC(=O)[C@H](Cc1c[nH]cn1)NC(=O)[C@H](CCCNC(=N)N)NC(=O)c1ccccc1)C(=O)N[C@@H](CC(N)=O)C(=O)N[C@@H](Cc1c[nH]c2ccccc12)C(=O)N[C@@H](CCCCN)C(=O)N[C@H](C(=O)N[C@@H](CCCNC(=N)N)C(=O)N[C@@H](CCC(N)=O)C(=O)N[C@@H](CCCNC(=N)N)C(=O)N[C@@H](CC1CCCCC1)C(N)=O)[C@@H](C)O` [Compound 12] (Bz-RH[Cha]INWKTRQR[Cha]-NH2) yielded an IC50 in data set [2] of 2.4 nM. The compound also came in with an EC50 in data set [3] of 0.84 nM. In data set [4] (bolus ip 1000 nmol/kg), the “% food intake inhibition” value came out at 4 ± 13%. For the same compound, the fraction remaining at 0.5 h in data set [5] is 51%.
`CC[C@H](C)[C@H](NC(=O)[C@H](Cc1ccc(O)cc1)NC(=O)[C@H](C)NC(=O)[C@H](CCCNC(=N)N)NC(=O)c1ccccc1)C(=O)N[C@@H](CC(N)=O)C(=O)N[C@@H](CC(C)C)C(=O)N[C@H](C(=O)N[C@H](C(=O)N[C@@H](CCCNC(=N)N)C(=O)N[C@@H](CCC(N)=O)C(=O)N[C@@H](CCCNC(=N)N)C(=O)N[C@@H](Cc1ccc(O)cc1)C(N)=O)[C@@H](C)O)[C@@H](C)CC` [Compound 1, benzoyl-[Ala^26,Ile^28,31]PYY(25–36)] (Bz-RAYINLITRQRY-NH2) came in with an IC50 in data set [2] of 16 nM. The compound further returned an EC50 in data set [3] of 1.7 nM. In data set [4] (bolus ip 2000 nmol/kg), the “% food intake inhibition” value worked out at 25 ± 7%. Also, the share remaining at 0.5 h in data set [5] turned out to be 5%.
The compound `CC[C@H](C)[C@H](NC(=O)[C@H](CC1CCCCC1)NC(=O)[C@H](Cc1c[nH]cn1)NC(=O)[C@H](CCCNC(=N)N)NC(=O)c1ccccc1)C(=O)N[C@@H](CC(N)=O)C(=O)N[C@@H](CC(C)C)C(=O)N[C@@H](CC1CCCCC1)C(=O)N[C@H](C(=O)N[C@@H](CCCNC(=N)N)C(=O)N[C@@H](CCC(N)=O)C(=O)N[C@@H](CCCNC(=N)N)C(=O)N[C@@H](CC1CCCCC1)C(N)=O)[C@@H](C)O` [Compound 8] (Bz-RH[Cha]INL[Cha]TRQR[Cha]-NH2) registered an IC50 in data set [2] of 25 nM. In data set [3], the EC50 turned out to be 7.3 nM. The “% food intake inhibition” value in data set [4] (bolus ip 500 nmol/kg) stood at 17 ± 8%; in data set [4] (bolus ip 1000 nmol/kg), 46 ± 8%. In data set [5], the share remaining at 0.5 h was determined as 114%.
`CC[C@H](C)[C@H](NC(=O)[C@H](CC1CCCCC1)NC(=O)[C@H](Cc1c[nH]cn1)NC(=O)[C@H](CCCNC(=N)N)NC(=O)c1ccccc1)C(=O)N[C@@H](CC(N)=O)C(=O)N[C@@H](CC(C)C)C(=O)N[C@H](C(=O)N[C@H](C(=O)N[C@@H](CCCNC(=N)N)C(=O)N[C@@H](CCC(N)=O)C(=O)N[C@@H](CCCNC(=N)N)C(=O)N[C@@H](Cc1ccc(O)cc1)C(N)=O)[C@@H](C)O)[C@@H](C)CC` [Compound 3] (Bz-RH[Cha]INLITRQRY-NH2) had an IC50 in data set [2] of 15 nM. The compound also had an EC50 in data set [3] of 1.9 nM. Also, the entries for the “% food intake inhibition” value in data set [4] (bolus ip 1000 nmol/kg) and in data set [4] (bolus ip 2000 nmol/kg) were 17 ± 7% and 39 ± 7%, respectively. Further, the share remaining at 0.5 h in data set [5] is 10%.
As for `CC[C@H](C)[C@H](NC(=O)[C@H](CC1CCCCC1)NC(=O)[C@H](Cc1c[nH]cn1)NC(=O)[C@H](CCCNC(=N)N)NC(=O)c1ccccc1)C(=O)N[C@@H](CC(N)=O)C(=O)N[C@@H](CC(C)C)C(=O)NC(C)(C)C(=O)N[C@H](C(=O)N[C@@H](CCCNC(=N)N)C(=O)N[C@@H](CCC(N)=O)C(=O)N[C@@H](CCCNC(=N)N)C(=O)N[C@@H](CC1CCCCC1)C(N)=O)[C@@H](C)O` [Compound 10] (Bz-RH[Cha]INL[Aib]TRQR[Cha]-NH2), 4.8 nM corresponded to half-maximal inhibition in data set [2] (IC50). The compound also gave an EC50 in data set [3] of 1.1 nM. For the same compound, the “% food intake inhibition” value came out at 3 ± 4% in data set [4] (bolus ip 250 nmol/kg), 8 ± 7% in data set [4] (bolus ip 500 nmol/kg), 39 ± 3% in data set [4] (bolus ip 1000 nmol/kg) and 60 ± 7% in data set [4] (bolus ip 2000 nmol/kg). Besides, the share remaining at 0.5 h in data set [5] was 94%.

The values are drawn from publication PMC6044503 (ACS Omega, 2017).
